Results taken from patent US9492460B2, “Carbazole compounds useful as bromodomain inhibitors” (Bristol-Myers Squibb Company, priority 2013, dated 2016).
pIC50: −log10 of the molar value.

molecular target: T1, bromodomain BRD4 (44-168), BRD4 (333-460), and BRD4 (1-477 or 44-460) (Homo sapiens, UniProt O60885); experiment: Time Resolved Fluorescence Resonance Energy Transfer (TR-FRET) binding assay; settings: one of the FRET assays described
T1 construct: BRD4(44-168), BRD4(333-460), BRD4(44-460), BRD4(1-477), O60885-1; fused on or other part: N-terminal BirA biotinylation motif, biotinylated; The TVMV-cleavable His6 tag is removed, except in some BRD4(44-460) runs detected with anti-His terbium cryptate

pIC50	Structure (SMILES)
> 7.30	Cc1noc(C)c1-c1cc(C(N)=O)c2c3cc(C(=O)N4CC(F)(F)C4)ccc3n(C(C)c3ccccc3)c2c1 (racemic) [Example 96, 6-((3,3-difluoro-1-azetidinyl)carbonyl)-2-(3,5-dimethyl-4-isoxazolyl)-9-(1-phenylethyl)-9H-carbazole-4-carboxamide]
> 7.30	Cc1noc(C)c1-c1cc(C(N)=O)c2c3ccc(C(C)(C)O)cc3n(C[C@@]3(F)C[C@@H]4CC[C@H]3O4)c2c1 (relative stereo) [Example 225, rel-2-(dimethyl-1,2-oxazol-4-yl)-9-{[(1R,2S,4S)-2-fluoro-7-oxabicyclo[2.2.1]heptan-2-yl]methyl}-7-(2-hydroxypropan-2-yl)-9H-carbazole-4-carboxamide]
> 7.30	Cc1noc(C)c1-c1cc(C(N)=O)c2c3cc(C(=O)N4CC(F)(F)C4)ccc3n(C(C)c3ccccc3)c2c1 (single isomer, unassigned) [Example 98, 6-((3,3-difluoro-1-azetidinyl)carbonyl)-2-(3,5-dimethyl-4-isoxazolyl)-9-(1-phenylethyl)-9H-carbazole-4-carboxamide]
> 7.30	Cc1noc(C)c1-c1cc(C(N)=O)c2c3ccc(C(C)(C)O)cc3n(C(c3ccccc3)C3(F)CCC3)c2c1 (single isomer, unassigned) [Example 222, 2-(Dimethyl-1,2-oxazol-4-yl)-9-[(1-fluorocyclobutyl)(phenyl)methyl]-7-(2-hydroxypropan-2-yl)-9H-carbazole-4-carboxamide]
> 7.30	Cc1noc(C)c1-c1cc(C(N)=O)c2c3ccc(C(C)(C)O)c(F)c3n(C(c3ccc(F)cc3)C3CCOCC3)c2c1 (single isomer, unassigned) [Example 223, 2-(Dimethyl-1,2-oxazol-4-yl)-8-fluoro-9-[(4-fluorophenyl)(oxan-4-yl)methyl]-7-(2-hydroxypropan-2-yl)-9H-carbazole-4-carboxamide]
> 7.30	Cc1noc(C)c1-c1cc(C(N)=O)c2c3ccc(C(C)(C)O)c(F)c3n(C(c3ccc(F)cc3)C3CCOCC3)c2c1 (single isomer, unassigned) [Example 224, 2-(Dimethyl-1,2-oxazol-4-yl)-8-fluoro-9-[(4-fluorophenyl)(oxan-4-yl)methyl]-7-(2-hydroxypropan-2-yl)-9H-carbazole-4-carboxamide]
> 7.30	Cc1noc(C)c1-c1cc(C(N)=O)c2c3ccc(C(C)(C)O)c(F)c3n(C(c3ccccc3)C3CCC(F)(F)CC3)c2c1 (single isomer, unassigned) [Example 226, 9-[(4,4-difluorocyclohexyl)(phenyl)methyl]-2-(dimethyl-1,2-oxazol-4-yl)-8-fluoro-7-(2-hydroxypropan-2-yl)-9H-carbazole-4-carboxamide]
> 7.30	Cc1noc(C)c1-c1cc(C(N)=O)c2c3ccc(C(C)(C)O)c(F)c3n(C(CCC(F)(F)F)c3ccccc3)c2c1 (single isomer, unassigned) [Example 231, 2-(dimethyl-1,2-oxazol-4-yl)-8-fluoro-7-(2-hydroxypropan-2-yl)-9-[4,4,4-trifluoro-1-phenylbutyl]-9H-carbazole-4-carboxamide]
> 7.30	Cc1nnn(C)c1-c1cc(C(N)=O)c2c3ccc(C(C)(C)O)cc3n(C(c3ccccc3)C3CCOCC3)c2c1 (single isomer, unassigned) [Example 233, 2-(1,4-Dimethyl-1H-1,2,3-triazol-5-yl)-7-(2-hydroxypropan-2-yl)-9-(phenyl(tetrahydro-2H-pyran-4-yl)methyl)-9H-carbazole-4-carboxamide]

The next lines start with the molecule.

Structure (SMILES)	pIC50
Cc1noc(C)c1-c1cc(C(N)=O)c2c3cc(C(=O)N4CC(F)(F)C4)ccc3n(C(C)c3ccccc3)c2c1 (single isomer, unassigned) [Example 97, 6-((3,3-difluoro-1-azetidinyl)carbonyl)-2-(3,5-dimethyl-4-isoxazolyl)-9-(1-phenylethyl)-9H-carbazole-4-carboxamide]	> 7.30
COc1ccc2c(c1)c1c(C(N)=O)cc(-c3c(C)noc3C)cc1n2C(C)c1ccccc1 (single isomer, unassigned) [Example 179, 2-(3,5-dimethyl-4-isoxazolyl)-6-methoxy-9-(1-phenylethyl)-9H-carbazole-4-carboxamide]	> 7.30
COc1ccc2c(c1)c1c(C(N)=O)cc(-c3c(C)noc3C)cc1n2C(C)c1ccccc1 (single isomer, unassigned) [Example 180, 2-(3,5-dimethyl-4-isoxazolyl)-6-methoxy-9-(1-phenylethyl)-9H-carbazole-4-carboxamide]	> 7.30
Cc1noc(C)c1-c1cc(C(N)=O)c2c3ccc(C(C)(C)O)cc3n(C(c3ccccc3)C3CCOCC3)c2c1 (single isomer, unassigned) [Example 198]	> 7.30
Cc1noc(C)c1-c1cc(C(N)=O)c2c3ccc(C(C)(C)O)cc3n(C(c3ccccc3)C3CCOCC3)c2c1 (single isomer, unassigned) [Example 199]	> 7.30
Cc1noc(C)c1-c1cc(C(N)=O)c2c3ccc(C(C)(C)O)cc3n(C(c3ccc(F)cc3)C3CCOCC3)c2c1 (single isomer, unassigned) [Example 219, 2-(Dimethyl-1,2-oxazol-4-yl)-9-[(4-fluorophenyl)(oxan-4-yl)methyl]-7-(2-hydroxypropan-2-yl)-9H-carbazole-4-carboxamide]	> 7.30
Cc1noc(C)c1-c1cc(C(N)=O)c2c3ccc(C(C)(C)O)cc3n(C(c3ccc(F)cc3)C3CCOCC3)c2c1 (single isomer, unassigned) [Example 220, 2-(Dimethyl-1,2-oxazol-4-yl)-9-[(4-fluorophenyl)(oxan-4-yl)methyl]-7-(2-hydroxypropan-2-yl)-9H-carbazole-4-carboxamide]	> 7.30
Cc1noc(C)c1-c1cc(C(N)=O)c2c3ccc(C(C)(C)O)cc3n(C(c3ccccc3)C3(F)CCC3)c2c1 (single isomer, unassigned) [Example 221, 2-(Dimethyl-1,2-oxazol-4-yl)-9-[(1-fluorocyclobutyl)(phenyl)methyl]-7-(2-hydroxypropan-2-yl)-9H-carbazole-4-carboxamide]	> 7.30
Cc1noc(C)c1-c1cc(C(N)=O)c2c3ccc(C(C)(C)O)c(F)c3n(C(c3ccccc3)C3CCC(F)(F)CC3)c2c1 (single isomer, unassigned) [Example 227, 9-[(4,4-difluorocyclohexyl)(phenyl)methyl]-2-(dimethyl-1,2-oxazol-4-yl)-8-fluoro-7-(2-hydroxypropan-2-yl)-9H-carbazole-4-carboxamide]	> 7.30
Cc1noc(C)c1-c1cc(C(N)=O)c2c3ccc(C(C)(C)O)c(F)c3n(C(CCC(F)(F)F)c3ccccc3)c2c1 (single isomer, unassigned) [Example 230, 2-(dimethyl-1,2-oxazol-4-yl)-8-fluoro-7-(2-hydroxypropan-2-yl)-9-[4,4,4-trifluoro-1-phenylbutyl]-9H-carbazole-4-carboxamide]	> 7.30
Cc1nnn(C)c1-c1cc(C(N)=O)c2c3ccc(C(C)(C)O)cc3n(C(c3ccccc3)C3CCOCC3)c2c1 (single isomer, unassigned) [Example 232, 2-(1,4-Dimethyl-1H-1,2,3-triazol-5-yl)-7-(2-hydroxypropan-2-yl)-9-(phenyl(tetrahydro-2H-pyran-4-yl)methyl)-9H-carbazole-4-carboxamide]	> 7.30
Cc1noc(C)c1-c1ccc2c(c1)[nH]c1ccc(C(=O)N3CCOCC3)cc12 [Example 1, 2-(3,5-dimethyl-4-isoxazolyl)-6-(4-morpholinylcarbonyl)-9H-carbazole]	> 6.30
